One assay deals with normal PBMC. The following applies: glycyrrhizin alone; cited from earlier work.
Assay [1] deals with peripheral blood mononuclear cells (PBMC). The experiment in a line: IFN-γ secretion by PBMC incubated 72 h with Immune+™ with or without PHA, ELISA (Example 2). The class given is cell-based, human. The note with it: PHA alone, 10 μg/ml. As for the experimental part:
(§1) Ten mg of Immune+™ was suspended in 1 ml RPMI-1640 with 10% heat inactivated fetal bovine serum (media). The suspension was shaken vigorously on a vortex mixer. The insoluble components were quickly pelleted and the remaining suspension filtered twice: first through a 0.45 micron syringe filter followed by a 0.2 micron syringe filter. This filtrate was used as our stock (approx. 10 mg/ml) from which dilutions were made for the incubations with PBMC. The stock solution was diluted in media prior to treatment with PBMC.
(§2) Volunteers of various ethnic backgrounds and ranging in age from 18-35 years, participated in this study. […] Viability was determined by trypan blue exclusion and was consistently >96%. […]
(§3) Aliquots of culture supernates were frozen immediately upon harvest and stored at −20° C. until analysis by ELISA. Concentrations of IL-1 β and IFN-γ were determined using the DuoSet® ELISA Development System (R & D Systems, Minneapolis, Minn.) with a detection limit of 3.9 and 15.6 pg/ml respectively.
(§4) The effects of various concentrations of Immune+™ on IL-1β and IFN-γ production in either unstimulated or PHA-stimulated PBMC were analyzed using a one-way ANOVA followed by post-hoc Tukey comparison. […]
(§5) The concentrations of IL-1β and IFN-γ in the supernate were measured by ELISA.
A general note: An ELISA detects its analyte on a solid surface through an enzyme-linked reagent.

Assay [2] has the same test system. The experiment in a line: IL-1β secretion by PBMC incubated 72 h with Immune+™ with or without PHA, ELISA (Example 2). The format is cell-based, human. The following applies: PHA alone, 10 μg/ml. As for the experimental part:
as §1, §2, §3, §4, §5

Regarding `CC1(C)[C@@H](O[C@H]2O[C@H](C(=O)O)[C@@H](O)[C@H](O)[C@H]2O[C@@H]2O[C@H](C(=O)O)[C@@H](O)[C@H](O)[C@H]2O)CC[C@]2(C)[C@H]3C(=O)C=C4[C@@H]5C[C@@](C)(C(=O)O)CC[C@]5(C)CC[C@@]4(C)[C@]3(C)CC[C@@H]12` [glycyrrhizin, 20β-carboxy-11-oxo-30-norolean-12-en-3 βyl-2-O-β-D-glucopyranuronosyl-α-D-glucopyranosiduronic acid], the “IFN-γ production” value in the assay with normal PBMC was “did not markedly alter”. Turning to phytohemagglutinin [PHA], the “IFN-γ production” value in assay [1] was “resulted in a production of IFN-γ”. Besides, in assay [2], the “IL-1β production” value is listed as “no effect”.

These data come from patent publication US6468541B2, “Natural, non-allergenic, immune system stimulant” (Chinese Herbal USA, Inc., priority 2000, dated 2002).
